Read-outs that look alike come from different tables or passages of the source.
Legend:
[1] = system: RA-FLS cells; assay: Cytokine/chemokine proteome array, LPS-stimulated RA-FLS cells; assay type: cell-based, human; conditions: takinib 10 μM
Procedure: (§1) Rheumatoid arthritis fibroblast-like synoviocytes (RA-FLS) cells were prepared from surgical synovial samples at the University of Michigan as previously described. Cells were isolated from 4 individual patients (3 female, 1 male) and passaged no more than 2 times before use. Cells were cultured in CRML media, 10% FBS, 1% penicillin-streptomycin (PS), and 1% glutamate.
[…] Twenty-four hours after treatment, supernatant was added to Human Cytokine proteome array (R&D Systems). Cytokine kit was conducted in accordance with manufacturer protocol. Chemiluminescence was used to visualize protein quantities.

[2] = system: TAK1; conditions: read-out: potency as inhibitor of TAK1; cited from earlier work
[3] = Pharmacokinetics of takinib by LC-MS in plasma and tissues; assay type: in vivo, C3-tag mice; conditions: C3 tagged mice; for half-life: C3-tag, mouse, ip
Procedure: C3-tag mice were injected intraperitoneally (i.p.) with 50/75mpk takinib and sacrificed at 0, 1 h, 2 h, 4 h, 8 h, 16 h, and 24 h. At the indicated time points, the heart, spleen, kidney, liver, tumor, blood, plasma, muscle, and lung were harvested. All samples were frozen and stored at − 80 °C. Before quantifying the takinib in serum, a standard curve was constructed using HS-219, a close structural analog of takinib that serves as an internal standard. This internal standard solution was used for tissue homogenization. LC-MS analysis was performed at the Duke Proteomics and Metabolomics Core Facility. The final concentration of takinib in the plasma was calculated per milliliter of plasma.
GraphPad Prism 7 was used for statistical analysis of clinical score comparisons, histological analysis, and plasma concentrations. Two-way ANOVA followed by Dunnett’s multiple comparison test was performed for mean clinical score sum (Fig. 1); weight change over time (Fig. 1); joint score sum for all joints, knees, and forepaw and hind paw (Figs. 2, 3); protein analysis (Figs. 5, 6); and cell survival (Fig. 6g). A linear regression of LC-MS data on takinib was used for PK studies. T½ was determined by non-linear one-phase decay curves. Student T tests were performed for periosteal bone width (Additional file 1: Figure S2) and cell survival (Fig. 6f, g). An alpha of 0.05 was used for all statistical analysis.

[4] = system: RA-FLS cells; assay: Phospho-kinase proteome array, TNF-stimulated RA-FLS cells; assay type: cell-based, human; conditions: takinib 10 μM, TNF 30 ng/mL 30 min
Procedure: as §1
Briefly, 10^6 cells were plated and either no treatment (naïve) or pretreated with takinib (10 μM) or vehicle (DMSO) for 30 min prior to stimulation with TNF (30 ng/mL) for 30 min at 37 °C in 5% CO2 for phospho-kinase assay (R&D Systems). NF-κB and cytokine assays were performed as previously described; however, cells were incubated for 24 h post-TNF (30 ng/mL) or LPS (10 ng/mL) stimulation.

CCCn1/c(=N/C(=O)c2cccc(C(N)=O)c2)[nH]c2ccccc21 [takinib]
MIF protein level [1]: No significant changes
Serpin E1 protein level [1]: No significant changes
CXCL1 level ([1]; p < 0.0003): significantly downregulated
CCL2 level ([1]; p < 0.0009): significantly downregulated
reduction of IL-8 ([1]; p < 0.006): 57%
reduction of IL-6 ([1]; p < 0.055): 33%
IC50 [2]: ~9 nM
half-life ([3]; heart, 50 mg/kg, 50 mpk i.p., read-out: half-life, heart (converted)): 16 min
half-life ([3]; heart, 75 mg/kg, 75 mpk i.p., read-out: half-life, heart (converted)): 14.4 min
half-life ([3]; muscle, 50 mg/kg, 50 mpk i.p., read-out: half-life, muscle (converted)): 8.82 min
half-life ([3]; muscle, 75 mg/kg, 75 mpk i.p., read-out: half-life, muscle (converted)): 5.64 min
half-life ([3]; plasma, 50 mg/kg, 50 mpk i.p., read-out: half-life, plasma (converted)): 15.4 min
half-life ([3]; plasma, 75 mg/kg, 50 or 75 mg/kg i.p., read-out: plasma (serum) clearance t½): 21 min
half-life ([3]; plasma, 75 mg/kg, 75 mpk i.p., read-out: half-life, plasma (converted)): 28.2 min
half-life ([3]; spleen, 50 mg/kg, 50 mpk i.p., read-out: half-life, spleen (converted)): 279 min
half-life ([3]; tumor, 50 mg/kg, 50 mpk i.p., read-out: half-life, tumor (converted)): 22.1 min
half-life ([3]; tumor, 75 mg/kg, 75 mpk i.p., read-out: half-life, tumor (converted)): 9.94 min
half-life, spleen ([3]; 50 mpk i.p., 50 mg/kg): 277.6 min
AMPKα1 phosphorylation, array signal, Mean ([4]; n=4): 111.9564
AMPKα2 phosphorylation, array signal, Mean ([4]; n=4): 187.6195
Akt 1/2/3 (pS473) array signal, Mean ([4]; n=4): 39.51
Akt 1/2/3 (pT308) array signal, Mean ([4]; n=4): 122.7503
CREB phosphorylation, array signal, Mean ([4]; n=4): 232.3464
Chk-2 phosphorylation, array signal, Mean ([4]; n=4): 86.85
EGF R phosphorylation, array signal, Mean ([4]; n=4): 60.59
ERK1/2 phosphorylation, array signal, Mean ([4]; n=4): 95.02
FAK phosphorylation, array signal, Mean ([4]; n=4): 142.7814
Fgr phosphorylation, array signal, Mean ([4]; n=4): 41.73
Fyn phosphorylation, array signal, Mean ([4]; n=4): 78.9
GSK-3α/β phosphorylation, array signal, Mean ([4]; n=4): 191.6206
HSP27 phosphorylation, array signal, Mean ([4]; n=4): 202.916
HSP60 array signal, Mean ([4]; n=4): 40.313
Hck phosphorylation, array signal, Mean ([4]; n=4): 119.1771
JNK 1/2/3 phosphorylation, array signal, Mean ([4]; n=4): 100.6526
Lck phosphorylation, array signal, Mean ([4]; n=4): 44.393
Lyn phosphorylation, array signal, Mean ([4]; n=4): 69.34
MSK1/2 phosphorylation, array signal, Mean ([4]; n=4): 239.7188
PDGF Rβ phosphorylation, array signal, Mean ([4]; n=4): 50.4425
PLC-γ1 phosphorylation, array signal, Mean ([4]; n=4): 34.4325
PRAS40 phosphorylation, array signal, Mean ([4]; n=4): 244.5596
PYK2 phosphorylation, array signal, Mean ([4]; n=4): 87.75
RSK1/2/3 phosphorylation, array signal, Mean ([4]; n=4): 168.3928
STAT2 phosphorylation, array signal, Mean ([4]; n=4): 200.5311
STAT3 (pS727) array signal, Mean ([4]; n=4): 95.82
STAT3 (pY705) array signal, Mean ([4]; n=4): 85.93
STAT5a phosphorylation, array signal, Mean ([4]; n=4): 99.7
STAT5a/b phosphorylation, array signal, Mean ([4]; n=4): 146.267
STAT5b phosphorylation, array signal, Mean ([4]; n=4): 154.004
STAT66 phosphorylation, array signal, Mean ([4]; n=4): 147.8809
Src phosphorylation, array signal, Mean ([4]; n=4): 176.3574
TOR phosphorylation, array signal, Mean ([4]; n=4): 129.6068
WNK1 phosphorylation, array signal, Mean ([4]; n=4): 218.9865
Yes phosphorylation, array signal, Mean ([4]; n=4): 124.3601
c-Jun phosphorylation, array signal, Mean ([4]; n=4): 196.6019
eNOS phosphorylation, array signal, Mean ([4]; n=4): 41.6005
p27 phosphorylation, array signal, Mean ([4]; n=4): 40.56
p38α phosphorylation, array signal, Mean ([4]; n=4): 59.41
p53 (pS15) array signal, Mean ([4]; n=4): 47.48
p53 (pS46) array signal, Mean ([4]; n=4): 126.377
p53 (pS392) array signal, Mean ([4]; n=4): 83.6435
p70 S6 Kinase (T389) array signal, Mean ([4]; n=4): 78.65
p70 S6 Kinase (site not given) array signal, Mean ([4]; n=4): 110.3643
β-Catenin array signal, Mean ([4]; n=4): 57.16
number of human kinases with significantly reduced phosphorylation ([4]; 45 phospho-kinase proteins profiled): 21
